In ChEMBL document CHEMBL1201862, “PubChem BioAssay data set” (2004):
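All cell lines were grown in 96-well plates and treated with compound for 48 hours. At the GI50, growth is halved.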 The source made the active and inactive calls. Cut-off read from the data, not from the text of the source: active = GI50 up to about 1.1 µM and inactive = higher.

Legend:
Assay in all cases: NCI-60 cell line screen, 48 h
K562 = tested on: K562
Hs-578T = tested on: Hs-578T
HOP-62 = tested on: HOP-62
IGROV-1 = tested on: IGROV-1
A549 = tested on: A549
SF-268 = tested on: SF-268
OVCAR-8 = tested on: OVCAR-8
KM12 = tested on: KM12
PC-3 = tested on: PC-3
SK-MEL-5 = tested on: SK-MEL-5
A498 = tested on: A498
OVCAR-5 = tested on: OVCAR-5
RPMI-8226 = tested on: RPMI-8226
TK-10 = tested on: TK-10
SW-620 = tested on: SW-620
LOX IMVI = tested on: LOX IMVI
NCI-H522 = tested on: NCI-H522
MDA-MB-435 = tested on: MDA-MB-435
OVCAR-4 = tested on: OVCAR-4
HCC 2998 = tested on: HCC 2998

Structure (SMILES) | GI50 (K562) | GI50 (Hs-578T) | GI50 (HOP-62) | GI50 (IGROV-1) | GI50 (A549) | GI50 (SF-268) | GI50 (OVCAR-8) | GI50 (KM12) | GI50 (PC-3) | GI50 (SK-MEL-5) | GI50 (A498) | GI50 (OVCAR-5) | GI50 (RPMI-8226) | GI50 (TK-10) | GI50 (SW-620) | GI50 (LOX IMVI) | GI50 (NCI-H522) | GI50 (MDA-MB-435) | GI50 (OVCAR-4) | GI50 (HCC 2998)
CCOC(=O)c1c(N=C(S)Nc2ccc(Cl)cc2)sc2c1CCN(C)C2 | 61 µM (inactive) | > 100 µM (inactive) | > 100 µM (inactive) | > 100 µM (inactive) | > 100 µM (inactive) | > 100 µM (inactive) | > 100 µM (inactive) | > 100 µM (inactive) | > 100 µM (inactive) | > 100 µM (inactive) | > 100 µM (inactive) | > 100 µM (inactive) | 33.9 µM (inactive) | > 100 µM (inactive) | – | – | – | – | – | –
Nc1ccc(Oc2ccc(C34CC5C6CC7(c8ccc(Oc9ccc(N)cc9)cc8)CC5C(C3)C(C7)C6C4)cc2)cc1 | > 100 µM (inactive) | > 100 µM (inactive) | > 100 µM (inactive) | > 100 µM (inactive) | > 100 µM (inactive) | > 100 µM (inactive) | > 100 µM (inactive) | > 100 µM (inactive) | > 100 µM (inactive) | > 100 µM (inactive) | > 100 µM (inactive) | > 100 µM (inactive) | > 100 µM (inactive) | > 100 µM (inactive) | > 100 µM (inactive) | > 100 µM (inactive) | > 100 µM (inactive) | > 100 µM (inactive) | > 100 µM (inactive) | –
C=C1C(=O)C=C[C@]2(C)CC[C@H]3C(=C)C(=O)O[C@@H]3[C@@H]12 | 1.39 µM (inactive) | 4.1 µM (inactive) | 2.48 µM (inactive) | 1.29 µM (inactive) | 11.6 µM (inactive) | 3.15 µM (inactive) | 1.53 µM (inactive) | 1.61 µM (inactive) | 2.84 µM (inactive) | 2.34 µM (inactive) | 3.52 µM (inactive) | 1.33 µM (inactive) | 0.346 µM (active) | 0.419 µM (active) | 0.813 µM (active) | 1.8 µM (inactive) | 0.753 µM (active) | 1.57 µM (inactive) | 2.21 µM (inactive) | –
CC[n+]1[b-](C(C)(C)C)n(/N=C(\C)C(C)(C)C)[b-](C(C)(C)C)[n+]1CC | 71.8 µM (inactive) | > 100 µM (inactive) | > 100 µM (inactive) | > 100 µM (inactive) | > 100 µM (inactive) | > 100 µM (inactive) | > 100 µM (inactive) | > 100 µM (inactive) | > 100 µM (inactive) | > 100 µM (inactive) | – | > 100 µM (inactive) | – | > 100 µM (inactive) | > 100 µM (inactive) | > 100 µM (inactive) | > 100 µM (inactive) | > 100 µM (inactive) | > 100 µM (inactive) | > 100 µM (inactive)
O=C1CCCc2ccc3c(c21)CC1(Cc2cc4c(cc2C1)CCCC4)C3 | 6.49 µM (inactive) | 30.4 µM (inactive) | 24.7 µM (inactive) | 24.7 µM (inactive) | 22 µM (inactive) | 29 µM (inactive) | 19.7 µM (inactive) | 22.2 µM (inactive) | – | 12.6 µM (inactive) | 37.6 µM (inactive) | 27.4 µM (inactive) | 10.2 µM (inactive) | 23.1 µM (inactive) | 16 µM (inactive) | 14.6 µM (inactive) | 17.3 µM (inactive) | 19.6 µM (inactive) | 22.1 µM (inactive) | 42.9 µM (inactive)
O=C(CN1CCCC1=O)CS(=O)(=O)c1ccccc1 | > 100 µM (inactive) | > 100 µM (inactive) | > 100 µM (inactive) | > 100 µM (inactive) | > 100 µM (inactive) | > 100 µM (inactive) | > 100 µM (inactive) | > 100 µM (inactive) | > 100 µM (inactive) | > 100 µM (inactive) | – | > 100 µM (inactive) | > 100 µM (inactive) | > 100 µM (inactive) | > 100 µM (inactive) | > 100 µM (inactive) | > 100 µM (inactive) | > 100 µM (inactive) | – | > 100 µM (inactive)
Cc1ccc(NNc2cc(=O)[nH]c(=O)[nH]2)cc1Cl | 2.99 µM (inactive) | 83.2 µM (inactive) | 71.9 µM (inactive) | 13.8 µM (inactive) | 29 µM (inactive) | 43.2 µM (inactive) | – | 27.3 µM (inactive) | 22.3 µM (inactive) | 73.5 µM (inactive) | > 100 µM (inactive) | 73.8 µM (inactive) | 10.9 µM (inactive) | 19.1 µM (inactive) | 14.4 µM (inactive) | 5.71 µM (inactive) | 16.5 µM (inactive) | – | 14.7 µM (inactive) | 15.7 µM (inactive)
CCC1=C(C)C(=O)N/C1=C\c1[nH]c(C)c([C@H](C)CCN)c1C | 46.6 µM (inactive) | 11.9 µM (inactive) | 16.6 µM (inactive) | 17 µM (inactive) | 16.1 µM (inactive) | 16.2 µM (inactive) | 15.3 µM (inactive) | 15.7 µM (inactive) | – | 17.2 µM (inactive) | 18.6 µM (inactive) | 17.5 µM (inactive) | 25.6 µM (inactive) | – | 16.6 µM (inactive) | 15.3 µM (inactive) | 11.6 µM (inactive) | 15.3 µM (inactive) | 12.8 µM (inactive) | –
CC1CC(C#N)=C2NCCN2C1=O (stereo not drawn) | > 100 µM (inactive) | > 100 µM (inactive) | > 100 µM (inactive) | > 100 µM (inactive) | > 100 µM (inactive) | > 100 µM (inactive) | > 100 µM (inactive) | > 100 µM (inactive) | > 100 µM (inactive) | 15.2 µM (inactive) | – | – | > 100 µM (inactive) | > 100 µM (inactive) | 31.9 µM (inactive) | 30.8 µM (inactive) | 95.1 µM (inactive) | 18.3 µM (inactive) | > 100 µM (inactive) | > 100 µM (inactive)
CCOC(=O)O/N=C1/C(=C2/C(=O)Nc3ccccc32)Nc2ccccc21 | 12.2 µM (inactive) | 2.9 µM (inactive) | 6.81 µM (inactive) | 4.34 µM (inactive) | 4.56 µM (inactive) | 5.73 µM (inactive) | 5.83 µM (inactive) | 0.192 µM (active) | – | 2.37 µM (inactive) | 1.47 µM (inactive) | 16.5 µM (inactive) | 10.8 µM (inactive) | 5.35 µM (inactive) | 5.21 µM (inactive) | 4.8 µM (inactive) | 8.53 µM (inactive) | 4.48 µM (inactive) | 6.4 µM (inactive) | 2.73 µM (inactive)
C=CCCON(C(=O)OC(C)(C)C)C(C)(C)C | > 100 µM (inactive) | > 100 µM (inactive) | > 100 µM (inactive) | > 100 µM (inactive) | > 100 µM (inactive) | > 100 µM (inactive) | > 100 µM (inactive) | > 100 µM (inactive) | > 100 µM (inactive) | > 100 µM (inactive) | > 100 µM (inactive) | > 100 µM (inactive) | > 100 µM (inactive) | > 100 µM (inactive) | > 100 µM (inactive) | > 100 µM (inactive) | > 100 µM (inactive) | > 100 µM (inactive) | – | –
Cc1ccc(/N=C/C=C(\Nc2ccc(C)cc2)c2ccc3ccccc3c2)cc1 | 0.414 µM (active) | 0.753 µM (active) | 0.912 µM (active) | 0.541 µM (active) | 2.66 µM (inactive) | 2.19 µM (inactive) | > 100 µM (inactive) | 0.299 µM (active) | 1.02 µM (active) | 0.482 µM (active) | 10.8 µM (inactive) | 1.45 µM (inactive) | 0.536 µM (active) | 1.2 µM (inactive) | 0.445 µM (active) | 0.456 µM (active) | 2.74 µM (inactive) | 0.203 µM (active) | 0.65 µM (active) | –
O=Cc1[nH]c(=O)[nH]c(=O)c1C(=O)O | > 100 µM (inactive) | > 100 µM (inactive) | > 100 µM (inactive) | > 100 µM (inactive) | > 100 µM (inactive) | > 100 µM (inactive) | > 100 µM (inactive) | > 100 µM (inactive) | > 100 µM (inactive) | > 100 µM (inactive) | – | > 100 µM (inactive) | > 100 µM (inactive) | > 100 µM (inactive) | > 100 µM (inactive) | > 100 µM (inactive) | > 100 µM (inactive) | > 100 µM (inactive) | > 100 µM (inactive) | > 100 µM (inactive)
CCC1(CC)C(=O)N(C(=O)c2ccc(C)cc2)N(C(=O)c2ccc(C)cc2)C1=O | 40 µM (inactive) | > 75 µM (inactive) | 65.6 µM (inactive) | 48.9 µM (inactive) | > 75 µM (inactive) | 27.7 µM (inactive) | > 75 µM (inactive) | 50.9 µM (inactive) | 59.6 µM (inactive) | > 75 µM (inactive) | – | > 75 µM (inactive) | 35.4 µM (inactive) | 73.1 µM (inactive) | 29.8 µM (inactive) | 33.2 µM (inactive) | 16.8 µM (inactive) | > 75 µM (inactive) | > 75 µM (inactive) | > 75 µM (inactive)
CC(=O)OCCOc1cc2c([nH]c3ccccc32)c(C)c2cccc1-2 | 1.36 µM (inactive) | 3.47 µM (inactive) | 4.6 µM (inactive) | 1.77 µM (inactive) | 3.85 µM (inactive) | 2.47 µM (inactive) | 2.59 µM (inactive) | 2.34 µM (inactive) | 1.76 µM (inactive) | 2.77 µM (inactive) | 8.93 µM (inactive) | 2.97 µM (inactive) | 2.43 µM (inactive) | 2.2 µM (inactive) | 2.7 µM (inactive) | 2.61 µM (inactive) | 1.84 µM (inactive) | 2.29 µM (inactive) | 1.77 µM (inactive) | –
